Data reported in US6506755B2, “Thiazolidinecarboxyl acids” (Hoffmann-La Roche Inc., priority 2000, dated 2003).

Molecular target: human urokinase (uPA) binding to the specific receptor uPAR (Homo sapiens, UniProt Q03405)
Assay: ELISA test of inhibition of uPA binding to the receptor uPAR
Conditions: compound concentration 1 μg/ml, 96-well microtitre plates
Method: The compound of the invention were tested (ELISA test) as human urokinase (uPA) inhibitors, which bind to the specific receptor uPAR mAk (BIO-R4), in accordance with the procedure described by Rettenberger et al. In Biol. Chem. Hoppe Seyler 376, 587-94 (1995). The assays are carried out in microtitre plates (96 wells).

human urokinase (uPA) binding to the specific receptor uPAR, sequence (Q03405 23-305 limits assumed): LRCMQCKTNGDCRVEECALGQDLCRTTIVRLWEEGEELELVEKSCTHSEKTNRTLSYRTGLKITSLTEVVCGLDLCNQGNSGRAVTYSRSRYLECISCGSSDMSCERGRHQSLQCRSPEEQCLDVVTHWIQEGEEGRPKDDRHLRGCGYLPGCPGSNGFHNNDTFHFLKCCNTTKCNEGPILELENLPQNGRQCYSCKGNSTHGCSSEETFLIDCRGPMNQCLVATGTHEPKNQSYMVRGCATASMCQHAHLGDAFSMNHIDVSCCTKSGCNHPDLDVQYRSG

| Compound | inhibition at 1 µg/mL | % Inhibition at 1 μg/ml concentration |
| --- | --- | --- |
| O=C(O)CN1C(=O)C(=Cc2cc(OCCCc3ccc(Cl)cc3)ccc2OCCCc2ccc(Cl)cc2)SC1=S [Example 6, 5-[(2,5-Bis-(3-(4-chlorophenyl)propoxy)phenyl)methylene]-4-oxo-2-thioxo-3-thiazolidine-acetic Acid] | 57% | – |
| Cc1ccc(COc2ccc(C=C3SC(=S)N(C(Cc4ccccc4)C(=O)O)C3=O)c(OCc3ccc(C)cc3)c2)cc1 (stereo not drawn) [Example 23, 2-{5-[(2,4-Bis-(4-methylphenylmethoxy)phenyl)methylene]-4-oxo-2-thioxo-3-thiazolidine}-3-phenypropionic Acid] | – | 54% |
| Cc1ccc(COc2ccc(OCc3ccc(C)cc3)c(C=C3SC(=S)N(CC(=O)O)C3=O)c2)cc1 [Example 2, 5-[(2,5-Bis-(4-methylphenylmethoxy)phenyl)methylene]-4-oxo-2-thioxo-3-thiazolidineacetic Acid] | 68% | – |
| Cc1ccc(COc2ccc(C=C3SC(=S)N(C(C(=O)O)c4ccc(Cl)cc4)C3=O)c(OCc3ccc(C)cc3)c2)cc1 (stereo not drawn) [Example 24, 2-{5-[(2,4-Bis-(4-methylphenylmethoxy)phenyl)methylene]-4-oxo-2-thioxo-3-thiazolidine}-2-(4-chlorophenyl)acetic Acid] | – | 69% |
| Cc1ccc(COc2ccc(C=C3SC(=S)N(CC(=O)O)C3=O)c(OCc3ccc(C)cc3)c2)cc1 [Compound 2, 5-[(2,4-Bis-(4-methylphenylmethoxy)phenyl)methylene]-4-oxo-2-thioxo-3-thiazolidineacetic acid] | 48% | – |
| Cc1ccc(COc2ccc(C=C3SC(=S)N(C(C(=O)O)c4ccccc4)C3=O)c(OCc3ccc(C)cc3)c2)cc1 (stereo not drawn) [Example 22, 2-{5-[(2,4-Bis-(4-methylphenylmethoxy)phenyl)methylene]-4-oxo-2-thioxo-3-thiazolidine}-2-phenylacetic Acid] | – | 60% |

Second part, led by results:

| inhibition at 1 µg/mL | Compound | % Inhibition at 1 μg/ml concentration |
| --- | --- | --- |
| 63% | O=C(O)CN1C(=O)C(=Cc2cc(OCCCc3ccccc3)ccc2OCc2cccs2)SC1=S [Example 15, 5-[(2-(2-Thienylmethoxy)-5-(3-phenylpropoxy)phenyl)methylene]-4-oxo-2-thioxo-3-thiazolidineacetic Acid] | – |
| 53% | O=C(O)CN1C(=O)C(=Cc2cc(OCCCc3ccccc3)ccc2OCc2ccccc2)SC1=S [Example 13, 5-[(2-Phenylmethoxy-5-(3-phenylpropoxy)phenyl)methylene]-4-oxo-2-thioxo-3-thiazolidineacetic Acid] | – |

System: not given
Assay: not given
Conditions: not given

| melting point | Compound |
| --- | --- |
| 211 °C | Cc1ccc(COc2ccc(C=C3SC(=S)N(CC(=O)O)C3=O)c(OCc3ccc(C)cc3)c2)cc1 [Compound 2, 5-[(2,4-Bis-(4-methylphenylmethoxy)phenyl)methylene]-4-oxo-2-thioxo-3-thiazolidineacetic acid] |
